Laboratory results taken from patent US10544095B2 (Pfizer Inc., priority 2015, dated 2020).

target: hTDO2 in human glioblastoma A172 cells (Homo sapiens (Human), UniProt P48775); experiment: Cellular assay for TDO2 activity determination in A172 cells; assay type: cell-based; conditions: overnight incubation, kynurenine absorbance at 480 nm
Method: The compounds of formula I inhibit the activity of human TDO2 in cells that constitutively express TDO2, such as A172 cells. A172 is a cell line derived from human brain glioblastoma cells. The cells are available from the American Type Culture Collection (ATCC®) as CRL-1620™.
The assay (adapted from Pilotte L et al., Proc Natl Acad Sci USA, 2012, 109(7), 2497-502) was performed in 96-well flat bottom plates seeded with human glioblastoma A172 cells, naturally expressing hTDO2 (prepared as described in Tilman et al., Mol Cancer, 2007, 17(6), 80), at a concentration of 1.25×10^4 cells/well in a final volume of 200 μL. To determine TDO, the cells were incubated overnight at 37° C. at 5% CO2 in IMDM (Invitrogen) supplemented with 2% FBS and 2% penicillin/streptomycin in the presence of the compounds of the present invention, at different concentrations.
The plates were then centrifuged 5 min at 1000 rpm, and 100 μL of the supernatant were collected in a conical plate, 30 μL of TCA 30% were added and a further centrifuged at 3000×g for 10 minutes. 100 μL of the supernatant were collected in a flat bottomed plate and 100 μL of 2% (w/v) 4-(dimethylamino)-benzaldehyde in acetic acid and incubated for 5 min at room temperature. Kynurenine concentrations were determined by measuring the absorbance at 480 nm. A standard curve was made with pure kynurenine. The TDO activity was measured as described above using ten serial concentrations of the compounds of the present invention. Data were fitted using the Prism™ software (GraphPad Software, Inc.) using standard parameters.

hTDO2 in human glioblastoma A172 cells, sequence (P48775 whole entry): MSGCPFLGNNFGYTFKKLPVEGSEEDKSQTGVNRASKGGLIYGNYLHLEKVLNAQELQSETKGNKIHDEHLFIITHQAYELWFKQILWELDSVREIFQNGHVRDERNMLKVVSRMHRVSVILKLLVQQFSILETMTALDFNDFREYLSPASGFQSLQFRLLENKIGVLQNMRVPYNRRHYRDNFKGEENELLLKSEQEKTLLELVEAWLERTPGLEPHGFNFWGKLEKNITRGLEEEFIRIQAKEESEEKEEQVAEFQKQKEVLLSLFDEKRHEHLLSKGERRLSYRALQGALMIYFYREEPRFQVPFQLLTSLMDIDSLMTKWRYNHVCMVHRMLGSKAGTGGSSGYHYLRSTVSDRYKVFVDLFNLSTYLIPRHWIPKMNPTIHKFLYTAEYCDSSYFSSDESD

Question: With O=S(=O)(N[C@@H]1CCOC1)c1ccc(-c2c[nH]c3cc(F)ccc23)cc1 [Example 55, (R)-4-(6-fluoro-1H-indol-3-yl)-N-(tetrahydrofuran-3-yl)-benzenesulfonamide] as the compound, how does the IC50 read?
Answer: 210 nM

Question: Cc1ccc(-c2c[nH]c3cc(F)ccc23)cc1S(=O)(=O)NCCN [Example 56, N-(2-aminoethyl)-5-(6-fluoro-1H-indol-3-yl)-2-methylbenzenesulfonamide] was tested. Which IC50 did it give?
Answer: 670 nM

Question: For CNC(=O)c1cc(-c2c[nH]c3cc(F)ccc23)ccc1S(=O)(=O)N1CCNCC1 [Example 57, 5-(6-fluoro-1H-indol-3-yl)-N-methyl-2-(piperazin-1-ylsulfonyl)-benzamide], which IC50 is on record?
Answer: 7100 nM

Question: Cc1noc(CCNS(=O)(=O)c2ccc(-c3c[nH]c4cc(F)ccc34)cc2)n1 [Example 59, 4-(6-fluoro-1H-indol-3-yl)-N-(2-(3-methyl-1,2,4-oxadiazol-5-yl)-ethyl)benzenesulfonamide] was tested. Which IC50 did it give?
Answer: 360 nM

Question: CNC(=O)n1cc(-c2ccc(S(=O)(=O)N3CCNCC3)cc2)c2ccc(F)cc21 [Example 60, 6-fluoro-N-methyl-3-(4-(piperazin-1-ylsulfonyl)phenyl)-1H-indole-1-carboxamide] was tested. Which IC50 did it give?
Answer: 9100 nM

Question: How did the IC50 turn out when COc1cc(-c2c[nH]c3cc(F)ccc23)cc(S(=O)(=O)NCCN)c1 [Example 61, N-(2-aminoethyl)-3-(6-fluoro-1H-indol-3-yl)-5-methoxybenzene-sulfonamide] was run?
Answer: 4300 nM

Question: NCCNS(=O)(=O)c1ccc(F)c(-c2c[nH]c3cc(F)ccc23)c1 [Example 62, N-(2-aminoethyl)-4-fluoro-3-(6-fluoro-1H-indol-3-yl)benzene-sulfonamide] was tested. Which IC50 did it give?
Answer: 3500 nM

Question: O=S(=O)(c1ccc(-c2c[nH]c3cc(F)ccc23)cc1)N1CC(CO)C1 [Example 63, (1-((4-(6-fluoro-1H-indol-3-yl)phenyl)sulfonyl)-azetidin-3-yl)methanol] was tested. Which IC50 did it give?
Answer: 170 nM

Question: How did the IC50 turn out when O=S(=O)(N[C@H]1CCOC1)c1ccc(-c2c[nH]c3cc(F)ccc23)cc1 [Example 64, (S)-4-(6-fluoro-1H-indol-3-yl)-N-(tetrahydrofuran-3-yl)-benzenesulfonamide] was run?
Answer: 270 nM

Question: With O=S(=O)(c1ccc(-c2c[nH]c3cc(F)ccc23)cc1)N1CC(O)C1 [Example 65, 1-((4-(6-fluoro-1H-indol-3-yl)phenyl)sulfonyl)azetidin-3-ol] as the compound, how does the IC50 read?
Answer: 160 nM

Question: How did the IC50 turn out when O=S(=O)(c1ccc(-c2c[nH]c3cc(F)ccc23)cc1)N1C[C@H](O)[C@@H](O)C1 [Example 66, (3S,4S) 1-[4-(6-Fluoro-1H-indol-3-yl)-benzenesulfonyl]-pyrrolidine-3,4-diol] was run?
Answer: 84 nM

Question: Which IC50 does the source give for NC(=O)C1CN(S(=O)(=O)c2ccc(-c3c[nH]c4cc(F)ccc34)cc2)C1 [Example 67, 1-((4-(6-fluoro-1H-indol-3-yl)phenyl)sulfonyl)azetidine-3-carboxamide] here?
Answer: 180 nM

Question: Which IC50 does the source give for O=S(=O)(NC1CNC1)c1ccc(-c2c[nH]c3cc(F)ccc23)cc1 [Example 68, N-(azetidin-3-yl)-4-(6-fluoro-1H-indol-3-yl)benzenesulfonamide] here?
Answer: 140 nM

Question: For NCCNS(=O)(=O)c1cc(O)cc(-c2c[nH]c3cc(F)ccc23)c1 [Example 69, N-(2-aminoethyl)-3-(6-fluoro-1H-indol-3-yl)-5-hydroxy-benzenesulfonamide], which IC50 is on record?
Answer: 330 nM

Question: With CC(=O)n1cc(-c2ccc(S(=O)(=O)N3CCNCC3)cc2)c2ccc(F)cc21 [Example 70, 1-(6-fluoro-3-(4-(piperazin-1-ylsulfonyl)phenyl)-1H-indol-1-yl)ethanone] as the compound, how does the IC50 read?
Answer: 580 nM

Question: Which IC50 does the source give for Cc1cc(-c2c[nH]c3cc(F)ccc23)cc(C)c1S(=O)(=O)N1CCNCC1 [Example 71, 3-(3,5-dimethyl-4-(piperazin-1-ylsulfonyl)phenyl)-6-fluoro-1H-indole] here?
Answer: 450 nM

Question: How did the IC50 turn out when O=S(=O)(NCCc1c[nH]nn1)c1ccc(-c2c[nH]c3cc(F)ccc23)cc1 [Example 72, N-(2-(1H-1,2,3-triazol-4-yl)ethyl)-4-(6-fluoro-1H-indol-3-yl)benzenesulfonamide] was run?
Answer: 300 nM

Question: Which IC50 does the source give for O=S(=O)(NCCc1ncc[nH]1)c1ccc(-c2c[nH]c3cc(F)ccc23)cc1 [Example 73, N-(2-(1H-imidazol-2-yl)ethyl)-4-(6-fluoro-1H-indol-3-yl)benzenesulfonamide] here?
Answer: 150 nM

Question: For O=S(=O)(c1ccc(-c2c[nH]c3cc(F)ccc23)cc1)N1C[C@@H](O)[C@H](O)C1 [Example 74, (3R,4R)-1-((4-(6-fluoro-1H-indol-3-yl)phenyl)-sulfonyl)pyrrolidine-3,4-diol], which IC50 is on record?
Answer: 96 nM

Question: For O=S(=O)(c1c(F)cc(-c2c[nH]c3cc(F)ccc23)cc1F)N1CCNCC1 [Example 75, 3-(3,5-difluoro-4-(piperazin-1-ylsulfonyl)phenyl)-6-fluoro-1H-indole], which IC50 is on record?
Answer: 380 nM

Question: Which IC50 does the source give for NC(=O)n1cc(-c2ccc(S(=O)(=O)N3CCNCC3)cc2)c2ccc(F)cc21 [Example 78, 6-fluoro-3-(4-(piperazin-1-ylsulfonyl)phenyl)-1H-indole-1-carboxamide] here?
Answer: 18000 nM

Question: With N[C@@H]1CN(S(=O)(=O)c2ccc(-c3c[nH]c4cc(F)ccc34)cc2)C[C@H]1F [Example 82, (3R,4R)-4-fluoro-1-{[4-(6-fluoro-1H-indol-3-yl)phenyl]sulfonyl}pyrrolidin-3-amine] as the compound, how does the IC50 read?
Answer: 250 nM

Question: How did the IC50 turn out when N[C@@H]1CN(S(=O)(=O)c2ccc(-c3c[nH]c4cc(F)ccc34)cc2)C[C@@H]1F [Example 83, (−)-(cis)-4-fluoro-1-((4-(6-fluoro-1H-indol-3-yl)-phenyl)sulfonyl)-pyrrolidin-3-amine] was run?
Answer: 110 nM

Question: For CC(NS(=O)(=O)c1ccc(-c2c[nH]c3cc(F)ccc23)cc1)c1nncn1C (stereo not shown) [Example 85, 4-(6-fluoro-1H-indol-3-yl)-N-[1-(4-methyl-4H-1,2,4-triazol-3-yl)ethyl]benzenesulfonamide], which IC50 is on record?
Answer: 390 nM

Question: Cc1nnc(CNS(=O)(=O)c2ccc(-c3c[nH]c4cc(F)ccc34)cc2)o1 [Example 89, 4-(6-fluoro-1H-indol-3-yl)-N-((5-methyl-1,3,4-oxadiazol-2-yl)methyl) benzenesulfonamide] was tested. Which IC50 did it give?
Answer: 200 nM

Question: Which IC50 does the source give for Cn1nccc1NS(=O)(=O)c1ccc(-c2c[nH]c3cc(F)ccc23)cc1 [Example 91, 4-(6-fluoro-1H-indol-3-yl)-N-(1-methyl-1H-pyrazol-5-yl)benzenesulfonamide] here?
Answer: 1800 nM

Question: How did the IC50 turn out when Cn1cnnc1CNS(=O)(=O)c1ccc(-c2c[nH]c3cc(F)ccc23)cc1 [Example 92, 4-(6-fluoro-1H-indol-3-yl)-N-[(4-methyl-4H-1,2,4-triazol-3-yl)methyl]-benzenesulfonamide] was run?
Answer: 560 nM

Question: With CNS(=O)(=O)CCN(C)S(=O)(=O)c1ccc(-c2c[nH]c3cc(F)ccc23)cc1 [Example 100, 4-(6-fluoro-1H-indol-3-yl)-N-methyl-N-[2-(methylsulfamoyl)ethyl]benzenesulfonamide] as the compound, how does the IC50 read?
Answer: 100 nM

Question: C[C@@H](CO)NS(=O)(=O)c1ccc(-c2c[nH]c3cc(F)ccc23)cc1 [Example 101, (−)-(6-fluoro-1H-indol-3-yl)-N-[(2S)-1-hydroxypropan-2-yl]benzenesulfonamide] was tested. Which IC50 did it give?
Answer: 93 nM

Question: Which IC50 does the source give for O=C(CCNS(=O)(=O)c1ccc(-c2c[nH]c3cc(F)ccc23)cc1)N1CCNCC1 [Example 102, 4-(6-fluoro-1H-indol-3-yl)-N-(3-oxo-3-(piperazin-1-yl)propyl) benzenesulfonamide] here?
Answer: 260 nM

Question: For CN1CCN(C(=O)CCNS(=O)(=O)c2ccc(-c3c[nH]c4cc(F)ccc34)cc2)CC1 [Example 103, 4-(6-fluoro-1H-indol-3-yl)-N-(3-(4-methylpiperazin-1-yl)-3-oxopropyl) benzenesulfonamide], which IC50 is on record?
Answer: 260 nM

Question: Which IC50 does the source give for O=C(CCNS(=O)(=O)c1ccc(-c2c[nH]c3cc(F)ccc23)cc1)N[C@H]1CCOC1 [Example 104, (−)-(S)-3-(4-(6-fluoro-1H-indol-3-yl)phenylsulfonamido)-N-(tetrahydrofuran-3-yl)propanamide] here?
Answer: 240 nM

Question: Which IC50 does the source give for N[C@H]1CN(C(=O)CCNS(=O)(=O)c2ccc(-c3c[nH]c4cc(F)ccc34)cc2)C[C@@H]1F [Example 105, (−)-N-(3-((3S,4S)-3-amino-4-fluoropyrrolidin-1-yl)-3-oxopropyl)-4-(6-fluoro-1H-indol-3-yl)benzenesulfonamide] here?
Answer: 220 nM

Question: O=C(CCNS(=O)(=O)c1ccc(-c2c[nH]c3cc(F)ccc23)cc1)N1CCOCC1 [Example 106, 4-(6-fluoro-1H-indol-3-yl)-N-(3-morpholino-3-oxopropyl)-benzenesulfonamide] was tested. Which IC50 did it give?
Answer: 270 nM

Question: O=C(CCNS(=O)(=O)c1ccc(-c2c[nH]c3cc(F)ccc23)cc1)N[C@@H]1CCOC1 [Example 107, (+)-(R)-3-(4-(6-fluoro-1H-indol-3-yl)phenylsulfonamido)-N-(tetrahydrofuran-3-yl)propanamide] was tested. Which IC50 did it give?
Answer: 160 nM

Question: O=C(NCCNS(=O)(=O)c1ccc(-c2c[nH]c3cc(F)ccc23)cc1)N1CCOCC1 [Example 108, N-(2-(4-(6-fluoro-1H-indol-3-yl)phenylsulfonamido)ethyl)-morpholine 4-carboxamide] was tested. Which IC50 did it give?
Answer: 170 nM

Question: With O=C(NCCNS(=O)(=O)c1ccc(-c2c[nH]c3cc(F)ccc23)cc1)N1CCNCC1 [Example 109, N-(2-(4-(6-fluoro-1H-indol-3-yl)phenylsulfonamido)ethyl) piperazine-1-carboxamide] as the compound, how does the IC50 read?
Answer: 1000 nM
